Measurements taken from ChEMBL document CHEMBL1201862, “PubChem BioAssay data set” (2004).
“And” between values parts separate entries of the source, which are not always exact repeats. Equal entries are not always repeated. The source made the active and inactive calls.

Experiments:
[1] = target: Cytochrome P450 3A4 (Homo sapiens, UniProt P08684);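 also: CYP3A4 tested as one member of a cytochrome P450 panel screen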
[2] = tested on: H4; assay: Luminescence Cell-Based Dose Response HTS to Identify Activators of 5'UTR Stem-Loop Driven Prion Protein mRNA Translation in H4 Neuroglioblastoma Cells. [Related pubchem assays: 1829 (Project Summary), 1814 (Primary HTS)]; assay type: functional; conditions: Homo sapiens
[3] = Luminescence Cell-Based Dose Confirmation HTS to Identify Activators of 5'UTR Stem-Loop Driven Alpha-Synuclein mRNA Translation in H4 Neuroglioblastoma Cells. [Related pubchem assays: 1829 (Project Summary), 1814 (Primary HTS)]; assay type: functional
[4] = Luminescence Cell-Based Dose Response HTS to Identify Activators of Luciferase Translation or Activity in H4 […] Cells. [Related pubchem assays: 1829 (Project Summary), 1814 (Primary HTS)]; assay type: functional
[5] = inhibitors of firefly luciferase expression or activity, dose response, H4 neuroglioma cells, luminescence (AID 1990); assay type: functional, cell-based
[6] = inhibitors of SNCA 5'UTR-driven reporter translation, confirmation, H4 neuroglioma cells, luminescence (AID 1988); assay type: functional, cell-based
[7] = Luminescence Cell-Based Dose Response HTS to Identify Inhibitors of 5'UTR Stem-Loop Driven Prion Protein mRNA Translation in H4 Neuroglioblastoma Cells. [Related pubchem assays: 1827 (Project Summary), 1813 (Primary HTS)]; assay type: functional
[8] = target: T1, Rac GTPase-activating protein 1 (Homo sapiens, UniProt Q9H0H5); assay: MgcRacGAP GTPase-activating activity inhibitors, confirmation, biochemical, ADP Hunter fluorescence, primary and confirmatory (AID 624330); assay type: functional
T1 sequence (Q9H0H5 whole entry): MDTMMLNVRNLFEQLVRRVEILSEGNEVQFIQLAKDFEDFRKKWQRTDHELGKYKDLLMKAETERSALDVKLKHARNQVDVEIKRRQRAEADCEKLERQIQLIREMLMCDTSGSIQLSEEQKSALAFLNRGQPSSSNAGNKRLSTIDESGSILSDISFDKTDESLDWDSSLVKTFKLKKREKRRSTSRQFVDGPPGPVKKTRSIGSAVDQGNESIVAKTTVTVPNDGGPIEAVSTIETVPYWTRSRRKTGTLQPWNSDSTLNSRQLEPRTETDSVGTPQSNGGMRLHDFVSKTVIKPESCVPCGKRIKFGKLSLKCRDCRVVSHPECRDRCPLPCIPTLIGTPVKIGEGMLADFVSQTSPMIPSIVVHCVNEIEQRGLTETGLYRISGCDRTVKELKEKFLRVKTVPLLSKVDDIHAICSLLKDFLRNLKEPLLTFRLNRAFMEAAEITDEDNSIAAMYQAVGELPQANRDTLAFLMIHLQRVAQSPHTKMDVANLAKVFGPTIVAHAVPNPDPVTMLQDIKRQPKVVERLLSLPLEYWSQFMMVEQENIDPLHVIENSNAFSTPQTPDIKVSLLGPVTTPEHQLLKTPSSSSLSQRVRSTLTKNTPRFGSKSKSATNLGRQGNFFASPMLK

[9] = target: T2, Cytochrome P450 1A2 (Homo sapiens, UniProt P05177);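 also: PubChem cytochrome P450 panel assay, CYP1A2 panel member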
T2 sequence (P05177 whole entry): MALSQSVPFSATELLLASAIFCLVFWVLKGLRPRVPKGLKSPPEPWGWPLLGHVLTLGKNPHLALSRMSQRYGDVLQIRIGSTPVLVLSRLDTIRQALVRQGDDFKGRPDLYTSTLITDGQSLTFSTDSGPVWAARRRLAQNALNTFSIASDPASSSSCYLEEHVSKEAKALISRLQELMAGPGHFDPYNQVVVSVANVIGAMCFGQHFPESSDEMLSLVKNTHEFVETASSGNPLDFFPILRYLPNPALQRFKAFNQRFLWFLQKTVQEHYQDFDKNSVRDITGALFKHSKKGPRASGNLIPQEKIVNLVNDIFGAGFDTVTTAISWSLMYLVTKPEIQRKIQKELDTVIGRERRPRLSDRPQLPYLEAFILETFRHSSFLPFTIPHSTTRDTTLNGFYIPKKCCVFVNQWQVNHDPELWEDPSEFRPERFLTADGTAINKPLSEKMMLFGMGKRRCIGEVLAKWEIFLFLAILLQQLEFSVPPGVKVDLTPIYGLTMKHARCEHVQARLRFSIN

[10] = target: Cytochrome P450 2C9 (Homo sapiens, UniProt P11712)
Sequence of Cytochrome P450 2C9 (P11712 whole entry): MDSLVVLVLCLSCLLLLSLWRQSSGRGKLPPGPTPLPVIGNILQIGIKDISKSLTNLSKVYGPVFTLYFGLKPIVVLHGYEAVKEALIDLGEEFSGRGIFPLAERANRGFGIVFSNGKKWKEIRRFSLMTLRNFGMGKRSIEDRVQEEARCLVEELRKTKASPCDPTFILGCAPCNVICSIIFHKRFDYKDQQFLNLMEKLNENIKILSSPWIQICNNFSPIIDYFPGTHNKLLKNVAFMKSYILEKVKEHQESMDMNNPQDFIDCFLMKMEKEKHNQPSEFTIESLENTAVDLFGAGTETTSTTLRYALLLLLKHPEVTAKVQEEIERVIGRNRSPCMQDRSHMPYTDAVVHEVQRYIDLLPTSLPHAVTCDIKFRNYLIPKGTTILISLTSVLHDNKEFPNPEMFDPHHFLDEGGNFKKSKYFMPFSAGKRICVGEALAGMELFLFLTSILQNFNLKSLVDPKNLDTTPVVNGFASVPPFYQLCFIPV

[11] = target: FAD-linked sulfhydryl oxidase ALR (Homo sapiens, UniProt P55789); assay: inhibitors of human ALR sulfhydryl oxidase, dose response, biochemical, H2O2 detection, luminescence, cherry-pick (AID 493248)
Sequence of FAD-linked sulfhydryl oxidase ALR (P55789 whole entry): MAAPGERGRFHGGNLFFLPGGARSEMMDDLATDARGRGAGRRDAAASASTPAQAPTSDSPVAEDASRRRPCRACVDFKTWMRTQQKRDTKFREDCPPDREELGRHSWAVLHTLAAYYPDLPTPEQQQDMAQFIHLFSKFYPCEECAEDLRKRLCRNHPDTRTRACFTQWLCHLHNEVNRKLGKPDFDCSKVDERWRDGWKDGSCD

[12] = target: T3, Heat shock factor protein 1 (Mus musculus, UniProt P38532); assay: HSF1 potentiators in luciferase reporter cells, confirmation, cell-based, NIH3T3, luminescence, dose retest (AID 435004); assay type: functional;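 also: stress induced by proteasome inhibitor MG132 added 30 min after compound; luciferase reporter driven by HSF1 response element in NIH3T3 cells; actives raise luminescence as potentiators of the MG132 stress response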
T3 sequence (P38532 whole entry): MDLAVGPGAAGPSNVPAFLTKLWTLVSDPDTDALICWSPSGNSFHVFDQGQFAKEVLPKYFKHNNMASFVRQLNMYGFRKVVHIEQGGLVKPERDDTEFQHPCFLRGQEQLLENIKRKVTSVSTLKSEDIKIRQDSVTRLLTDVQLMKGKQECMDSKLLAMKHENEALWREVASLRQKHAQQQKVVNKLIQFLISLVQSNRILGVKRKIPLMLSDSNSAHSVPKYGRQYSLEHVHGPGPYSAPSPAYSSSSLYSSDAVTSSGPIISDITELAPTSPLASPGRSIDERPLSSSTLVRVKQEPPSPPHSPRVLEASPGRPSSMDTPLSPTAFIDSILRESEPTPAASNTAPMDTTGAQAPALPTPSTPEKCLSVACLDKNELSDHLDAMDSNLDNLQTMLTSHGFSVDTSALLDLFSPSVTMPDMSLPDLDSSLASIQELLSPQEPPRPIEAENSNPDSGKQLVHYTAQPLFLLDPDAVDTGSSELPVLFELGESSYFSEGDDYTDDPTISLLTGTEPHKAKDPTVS

[13] = target: Cytochrome P450 2C19 (Homo sapiens, UniProt P33261); assay: Cytochrome panel assay with activity outcomes. Panel member name: p450-cyp2c19 Compounds with AC50 equal or less than 10 uM are considered active; assay type: functional; conditions: read-out: AC50
Sequence of Cytochrome P450 2C19 (P33261 whole entry): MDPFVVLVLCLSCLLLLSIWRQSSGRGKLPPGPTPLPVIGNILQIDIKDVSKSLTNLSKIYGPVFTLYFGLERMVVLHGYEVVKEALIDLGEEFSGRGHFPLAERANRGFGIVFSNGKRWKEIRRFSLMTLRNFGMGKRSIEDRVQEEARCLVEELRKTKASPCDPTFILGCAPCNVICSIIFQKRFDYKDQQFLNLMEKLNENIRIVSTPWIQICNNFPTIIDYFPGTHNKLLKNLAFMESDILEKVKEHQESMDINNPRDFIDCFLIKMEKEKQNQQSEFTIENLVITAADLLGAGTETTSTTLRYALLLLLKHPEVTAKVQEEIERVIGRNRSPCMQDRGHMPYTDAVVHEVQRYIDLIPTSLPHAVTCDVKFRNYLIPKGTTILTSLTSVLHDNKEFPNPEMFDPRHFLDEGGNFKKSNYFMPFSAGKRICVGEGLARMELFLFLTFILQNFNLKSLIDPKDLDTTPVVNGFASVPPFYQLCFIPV

Sequence of Cytochrome P450 3A4 (P08684 whole entry): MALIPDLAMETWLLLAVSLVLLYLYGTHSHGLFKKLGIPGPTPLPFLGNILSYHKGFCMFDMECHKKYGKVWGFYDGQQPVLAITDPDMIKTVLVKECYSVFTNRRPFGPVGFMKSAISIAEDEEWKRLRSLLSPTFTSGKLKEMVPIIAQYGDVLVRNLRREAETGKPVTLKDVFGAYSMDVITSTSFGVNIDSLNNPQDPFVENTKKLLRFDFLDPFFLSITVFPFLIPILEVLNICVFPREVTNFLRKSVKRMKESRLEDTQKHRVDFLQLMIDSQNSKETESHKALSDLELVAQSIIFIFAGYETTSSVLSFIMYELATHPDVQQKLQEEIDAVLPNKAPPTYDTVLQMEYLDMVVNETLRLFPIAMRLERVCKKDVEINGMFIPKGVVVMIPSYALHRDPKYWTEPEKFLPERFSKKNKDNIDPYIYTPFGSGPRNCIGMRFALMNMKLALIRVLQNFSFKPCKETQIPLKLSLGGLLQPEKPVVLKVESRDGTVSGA

In the case of `CC(C)[C@@H](OCc1ccccc1)[C@H](C)/C=N\O[C@@H](C)c1cn([C@H](CO)Cc2ccccc2)nn1`, the AC50 [1] is reported as 3.16 µM (inconclusive) and 3.98 µM (inconclusive).
For `Cc1ccc(NC(=O)Cc2nc(CSc3nnc(-c4ccc5c(c4)OCO5)o3)cs2)cc1`, the EC50 [2] was 6.97 µM (active), the EC50 [3] was 82.5 µM (active) and the EC50 [4] was 53.6 µM (active).
With `Cc1ccc(S(=O)(=O)N2CCC(=O)N(C(COCc3ccc(Cl)cc3)Cc3ccccc3)CC2)cc1` (stereo unspecified) the EC50 [5] was > 120 µM (not active), the EC50 [6] was 36.4 µM (active) and the EC50 [7] was 39.1 µM (active).
With `C=CCc1cc(C=O)cc(OC)c1OCc1ccc(Cl)cc1` the AC50 [1] was 17.8 µM (inconclusive).
In the case of `CCN1CCN(CC(=O)Nc2ccc(C)c(Br)c2)CC1`, the IC50 [8] is reported as 95.7 µM (active).
With `CC(=O)/C(=C\c1ccccc1F)C(=O)c1ccccc1` the AC50 [9] was 5.01 µM (inconclusive), the AC50 [1] was 3.16 µM (inconclusive) and the AC50 [10] was 6.31 µM (inconclusive).
In the case of `Cc1nc(SCc2cccc(F)c2)nc(O)c1C#N`, the AC50 [11] is reported as 9.69 µM (active).
In the case of `O=S(=O)(Nc1ccc(N2CCCCC2)cc1)c1ccc(F)c(F)c1`, the AC50 [11] is reported as 4.17 µM (active).
With `S=C(NC1CCCCC1)NC1CC2C=CC1C2` (stereo unspecified) the EC50 [12] was > 260 µM (inactive).
With `COc1cc(CC(=O)OCC(=O)Nc2ccc(N(C)C)cc2)cc(OC)c1OC` the IC50 [8] was 53.3 µM (active).
With `CN(C)c1cc(NC(=O)CN2CCCC2)c2ccccc2n1` the IC50 [8] was 41.6 µM (active).
In the case of `COc1ccc(C2CC(=O)c3cnc(N4CCc5ccccc54)nc3C2)cc1OC` (stereo unspecified), the EC50 [12] is reported as > 260 µM (inactive).
With `O=C(Cn1cccn1)N1CCCC(Nc2ccc(F)c(F)c2)C1` (stereo unspecified) the AC50 [11] was 1.92 µM (active).
For `COc1cc(C(C)=NNC(=O)c2ccncc2)ccc1O`, the IC50 [8] was 49.6 µM (active).
For `CCN(CCNC(=O)C1CCN(S(=O)(=O)CC)CC1)c1ccccc1`, the AC50 [11] was 0.013 µM (active).
In the case of `Cc1ccn(Cc2nnc(S)n2Cc2ccccc2)n1`, the AC50 [11] is reported as 8.59 µM (active).
In the case of `CCCn1nc(Oc2nc(NCC)nc(NC(C)C)n2)ccc1=O`, the AC50 [13] is reported as 39.8 µM (inconclusive) and the AC50 [1] is reported as 0.00562 µM (inconclusive).
For `Oc1ccc(/C(Cc2ccccn2)=N\Nc2ccccc2)c(O)c1`, the AC50 [11] was 0.332 µM (active).
In the case of `O=C1CSC(=S)N1/N=C/c1cccc(C(F)(F)F)c1`, the EC50 [12] is reported as > 260 µM (inactive).
With `C/C(=N\NC(=O)C1=NNC(=O)C1C)c1cccs1` (stereo unspecified) the EC50 [2] was 29.9 µM (active), the EC50 [3] was 13 µM (active) and the EC50 [4] was > 120 µM (not active).
In the case of `C/C(=N/NC(=O)C1CCN(S(=O)(=O)c2ccc(C)cc2)CC1)c1cccc([N+](=O)[O-])c1`, the EC50 [5] is reported as 22.9 µM (active), the EC50 [6] is reported as 48 µM (active) and the EC50 [7] is reported as 71 µM (active).
With `COc1cc(/C=N/NC(=O)CN(Cc2ccco2)S(=O)(=O)c2ccccc2)ccc1O` the IC50 [8] was 40 µM (active) and the AC50 [11] was 1.13 µM (active).
For `CN(C)c1ccc(/C=N/O)cc1`, the IC50 [8] was 21.8 µM (active).
With `C=Cc1ncc(OC)c2c1[nH]c1ccccc12` the EC50 [12] was 9.2 µM (active).
